Patent US20150105458A1, “LINE LEAF INULA FLOWER LACTONE A AND METHODS FOR PREPARING AND USING THE SAME FOR TREATING MULTIPLE SCLEROSIS” (SHANXI ZHENDONG PILOT BIOLOGICAL SCIENCE AND TECHNOLOGY …, priority 2012, published 2015)

What was measured:
[1] = test system: EAE mice; test: EAE model in mice, clinical course (onset and severity); assay type: in vivo, C57BL/6 mice; conditions: intragastric administration, 50 mg/kg once per day and higher doses, day 0 to day 30; FIG. 1
Protocol: (§1) EAE was induced in C57BL/6 mice (six mice per group) by subcutaneous injection of 0.1 ml of […] (in PBS, 300 μg/per mouse) on day 0, emulsified with Complete Freund's adjuvant (1:1) supplemented with Mycobacterium tuberculosis H37Ra antigen (400 μg/per mouse) or with Complete Freund's adjuvant alone as a control. All mice immunized with MOG received 250 ng pertussis toxin prepared in PBS, on days 0 and 2 by intraperitoneal injection.
(§2) Line leaf inula flower lactone A 45.3 g (from Example 1) was suspended in 0.5% CMC—Na (carboxymethyl cellulose sodium) to make a mixture with final concentration as 10 mg/ml, then diluted to four concentration gradients: (1) 25 mg/kg per day; (2) 50 mg/kg per day; (3) 100 mg/kg per day; (4) 200 mg/kg per day. The drug was given to the mice by intragastric administration from day 0 to day 30.

[2] = test system: brain tissue of EAE mice; test: HE staining of brain tissue of EAE mice; assay type: in vivo, C57BL/6 mice; conditions: intragastric administration, 50 mg/kg and higher doses; FIG. 2
Protocol: as §1, §2

C=C1C(=O)O[C@H]2C[C@@H](C)[C@@H]3[C@@H](OC(C)=O)C[C@H](O)[C@@]3(C)[C@@H](OC(C)=O)[C@H]12 [line leaf inula flower lactone A]
onset of EAE [1]: significantly delay the onset of EAE
severity of the disease (EAE) [1]: reduced the severity of the disease
arrangement of the organization (brain tissue, HE staining) [2]: basically returned to normal condition
inflammatory cells in brain and blood vessels (HE staining) [2]: reduced number of inflammatory cells in brain and blood vessels
